{
  "source": "patent US20110053900A1",
  "about": "“PROGESTERONE ANTAGONISTS SUCH AS CDB-4124 IN THE TREATMENT OF BREAST CANCER” (Repros Therapeutics inc, priority 2008, published 2011)",
  "experiment": "Serum corticosterone by ELISA",
  "type": "in vivo, rat",
  "conditions": "20 or 10 mg/kg",
  "experimental": "The animals were assessed three times for their levels of progesterone: initially, when they were about to go on treatment; a second time after 21 days of treatment; and finally after treatment at sacrifice which was 2-4 days after the last s.c. injection. All blood samples were taken by heart puncture; serum was prepared and held frozen at −40° C. The levels of the steroid hormones progesterone, cortisol, and corticosterone were determined by ELISA.\nThe concentrations of steroid hormones were determined three times during the study: before the beginning of treatments, after 21 days of treatment and finally after treatment at sacrifice which was 2-4 days after the last s.c. injection. All samples were taken by heart puncture. Serum was obtained and held frozen at −40° C. The levels of steroid hormones were determined by ELISA.\nCorticosterone is the most abundant glucocorticoid in rats. The effects of the SPRMs on cortisol may be secondary to strong effects on corticosterone. […] The levels of corticosterone were 10-40 times higher than the levels of cortisol. However, almost no difference between groups with respect to mean corticosterone levels was observed. […] There was no statistical difference in levels of corticosterone between animals with tumors and without tumors at either 21-days (p=0.94, t-test, two-tailed) or at sacrifice (p=0.37, t-test, two-tailed).",
  "data": [
    {"smiles": "COCC(=O)[C@@]1(OC(C)=O)CC[C@H]2[C@@H]3CCC4=CC(=O)CCC4=C3[C@@H](c3ccc(N(C)C)cc3)C[C@@]21C", "note": "[CDB-4124, 21-methoxy-17α-acetoxy-11β-(4 N,N-dimethylaminophenyl)-19-norpregna-4,9-diene-3,20-dione]", "values": [
      {"measurement": "effect on serum corticosterone (in words)", "value": "no strong effect"}
    ]}
  ]
}
